{"source": "PubChem BioAssay AID256", "about": "(DTP/NCI, 2004)", "system": "CD2F1 mice, L1210 leukemia ip, survival T/C", "test": "NCI In Vivo Anticancer Drug Screen. Data for tumor model L1210 Leukemia (intraperitoneal) in CD2F1 (CDF1) mice", "details": "endpoint: mean survival time, higher = longer survival", "summary_of_the_method": "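Tumor-bearing mice (transplanted tumor) were split into treated and vehicle control groups, and the measured endpoint of each treated group was divided by that of its vehicle controls.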", "key": {"[1]": {"details": "dose: 100.0 mg/kg/injection, schedule: Q01DX009 (ip), vehicle: saline with Tween-80"}}, "note": "Values joined by “and” are separate entries in the source; they are usually repeats but may differ in a detail not shown here. Identical values can stand only once. Inconclusive results and toxic doses are left out."}
{"smiles": "CS(=O)(=O)OCCN(CCOS(C)(=O)=O)c1ccc(C=Nc2ccc(-c3csc(COc4ccccc4)n3)cc2)cc1", "values": [{"measurement": "T/C", "setting": "dose: 12.5 mg/kg/injection, schedule: Q01DX009 (ip), vehicle: Klucel (hydroxypropylcellulose) (HPC)", "value": "119 % of control"}, {"measurement": "T/C", "setting": "dose: 25.0 mg/kg/injection, schedule: Q01DX009 (ip), vehicle: Klucel (hydroxypropylcellulose) (HPC)", "value": "110 % of control"}, {"measurement": "T/C", "setting": "dose: 50.0 mg/kg/injection, schedule: Q01DX009 (ip), vehicle: Klucel (hydroxypropylcellulose) (HPC)", "value": "112 % of control"}, {"measurement": "T/C", "setting": "dose: 100.0 mg/kg/injection, schedule: Q01DX009 (ip), vehicle: Klucel (hydroxypropylcellulose) (HPC)", "value": "115 % of control"}, {"measurement": "T/C", "setting": "dose: 200.0 mg/kg/injection, schedule: Q01DX009 (ip), vehicle: Klucel (hydroxypropylcellulose) (HPC)", "value": "120 % of control"}, {"measurement": "T/C", "setting": "dose: 400.0 mg/kg/injection, schedule: Q01DX008 (ip), vehicle: Klucel (hydroxypropylcellulose) (HPC)", "value": "150 % of control"}, {"measurement": "T/C", "setting": "dose: 400.0 mg/kg/injection, schedule: Q01DX009 (ip), vehicle: Klucel (hydroxypropylcellulose) (HPC)", "value": "106 % of control and 107 % of control"}]}
{"smiles": "COc1cc(C)ccc1Cl", "values": [{"measurement": "T/C", "setting": "[1]", "value": "101 % of control"}, {"measurement": "T/C", "setting": "dose: 200.0 mg/kg/injection, schedule: Q01DX009 (ip), vehicle: saline with Tween-80", "value": "118 % of control"}]}
{"smiles": "N#Cc1cn(C2OC(CO)C(O)C2O)c2ncn(N)c(=N)c12", "note": "(stereo not drawn)", "values": [{"measurement": "T/C", "setting": "dose: 25.0 mg/kg/injection, schedule: Q01DX005 (ip), vehicle: water", "value": "110 % of control"}, {"measurement": "T/C", "setting": "dose: 50.0 mg/kg/injection, schedule: Q01DX005 (ip), vehicle: water", "value": "111 % of control"}, {"measurement": "T/C", "setting": "dose: 100.0 mg/kg/injection, schedule: Q01DX005 (ip), vehicle: water", "value": "118 % of control"}]}
{"smiles": "CC(=O)Nc1ccc(S(=O)(=O)F)cc1", "values": [{"measurement": "T/C", "setting": "dose: 50.0 mg/kg/injection, schedule: Q01DX009 (ip), vehicle: saline with Tween-80", "value": "93 % of control"}, {"measurement": "T/C", "setting": "dose: 100.0 mg/kg/injection, schedule: Q01DX001 (ip), vehicle: saline with Tween-80", "value": "91 % of control"}, {"measurement": "T/C", "setting": "[1]", "value": "93 % of control"}, {"measurement": "T/C", "setting": "dose: 100.0 mg/kg/injection, schedule: Q04DX003 (ip), vehicle: saline with Tween-80", "value": "94 % of control"}, {"measurement": "T/C", "setting": "dose: 200.0 mg/kg/injection, schedule: Q01DX001 (ip), vehicle: saline with Tween-80", "value": "100 % of control"}, {"measurement": "T/C", "setting": "dose: 200.0 mg/kg/injection, schedule: Q04DX003 (ip), vehicle: saline with Tween-80", "value": "102 % of control"}]}
